Legend:
Format in all cases: biochemical
[1] = ω-transaminase activity assay, reverse direction (7-aminoheptanoate to pimelate semialdehyde); settings: cell free extract, 10 mM 7-aminoheptanoate, 10 mM pyruvate, 25° C., 4 h; against empty vector control; FIG. 15
Procedure: (§1) A sequence encoding an N-terminal His-tag was added to the genes from Chromobacterium violaceum, Pseudomonas syringae, Rhodobacter sphaeroides, and Vibrio Fluvialis encoding the ω-transaminases of SEQ ID NOs: 8, 10, 11 and 13, respectively (see FIGS. 7F and 7G) such that N-terminal HIS tagged ω-transaminases could be produced. Each of the resulting modified genes was cloned into a pET21a expression vector under control of the T7 promoter and each expression vector was transformed into a BL21[DE3] E. coli host. The resulting recombinant E. coli strains were cultivated at 37° C. in a 250 mL shake flask culture containing 50 mL LB media and antibiotic selection pressure, with shaking at 230 rpm. Each culture was induced overnight at 16° C. using 1 mM IPTG.
(§2) The pellet from each induced shake flask culture was harvested via centrifugation. Each pellet was resuspended and lysed via sonication. The cell debris was separated from the supernatant via centrifugation and the cell free extract was used immediately in enzyme activity assays.
Enzyme activity assays in the reverse direction (i.e., 7-aminoheptanoate to pimelate semialdehyde) were performed in a buffer composed of a final concentration of 50 mM HEPES buffer (pH=7.5), 10 mM 7-aminoheptanoate, 10 mM pyruvate and 100 μM pyridoxyl 5′ phosphate. […] The formation of L-alanine from pyruvate was quantified via RP-HPLC.

[2] = ω-transaminase activity assay, forward direction (pimelate semialdehyde to 7-aminoheptanoate)
Procedure: as §1, §2
Enzyme activity in the forward direction (i.e., pimelate semialdehyde to 7-aminoheptanoate) was confirmed for the transaminases of SEQ ID NO 10, SEQ ID NO 11 and SEQ ID NO 13. […] The formation of pyruvate was quantified via RP-HPLC.

[3] = ω-transaminase activity assay, 7-aminoheptanol to 7-oxoheptanol
Procedure: A nucleotide sequence encoding an N-terminal His-tag was added to the Chromobacterium violaceum, Pseudomonas syringae and Rhodobacter sphaeroides genes encoding the ω-transaminases of SEQ ID NOs: 8, 10 and 11, respectively (see FIGS. 7F and 7G) such that N-terminal HIS tagged ω-transaminases could be produced. The modified genes were cloned into a pET21a expression vector under the T7 promoter. Each expression vector was transformed into a BL21[DE3] E. coli host. Each resulting recombinant E. coli strain were cultivated at 37° C. in a 250 mL shake flask culture containing 50 mL LB media and antibiotic selection pressure, with shaking at 230 rpm. Each culture was induced overnight at 16° C. using 1 mM IPTG.
as §2
Enzyme activity assays in the reverse direction (i.e., 7-aminoheptanol to 7-oxoheptanol) were performed in a buffer composed of a final concentration of 50 mM HEPES buffer (pH=7.5), 10 mM 7-aminoheptanol, 10 mM pyruvate, and 100 μM pyridoxyl 5′ phosphate. […] The formation of L-alanine was quantified via RP-HPLC.

- acceptance of 7-aminoheptanoate as substrate (formation of L-alanine from pyruvate, RP-HPLC) [1]: accepted 7-aminoheptanote as substrate
- acceptance of 7-aminoheptanol as substrate (formation of L-alanine, RP-HPLC) ([3]; cell free extract, 10 mM 7-aminoheptanol, 10 mM pyruvate, 25° C., 4 h, against empty vector control, FIG. 19): accepted 7-aminoheptanol as substrate
- acceptance of 7-oxoheptanol as substrate, forming 7-aminoheptanol (concluded from reversibility) ([3]; concluded from reversibility of the ω-transaminase activity (Example 2)): accept 7-oxoheptanol as substrate
Substance: SEQ ID NO 11: Rhodobacter sphaeroides ω-transaminase, Genbank Accession No. ABA81135.1
- acceptance of pimelate semialdehyde as substrate (formation of pyruvate from L-alanine, RP-HPLC) ([2]; cell free extract, 10 mM pimelate semialdehyde, 10 mM L-alanine, 25° C., 4 h, against empty vector control, FIG. 16): accepted pimelate semialdehyde as substrate
- acceptance of pimelate semialdehyde as substrate, synthesizing 7-aminoheptanoate (conclusion from confirmed reversibility) ([2]; concluded from reversibility of the ω-transaminase activity): accepted pimelate semialdehyde as substrate

Reference: US10196657B2, “Methods of producing 7-carbon chemicals via methyl-ester shielded carbon chain elongation” (INVISTA North America S.á r.l., priority 2012, dated 2019)
